Laboratory results: patent US20260109707A1, “HETEROBIFUNCTIONAL COMPOUNDS AND METHODS OF TREATING DISEASE” (Halda Therapeutics OpCo. Inc., priority 2022, published 2026)
Like-named read-outs stand apart in the source and are kept apart here.

Tests used:
[1] = test system: T-Rex 293 cell line SC3 cells having increased expression of androgen receptor protein due to exposure to doxycycline; assay: Cellular growth inhibition assay, T-Rex 293 SC3 cells with doxycycline (CellTiter-Glo, 72 hours); assay type: cell-based; conditions: T-Rex 293 SC3 cells with increased androgen receptor expression due to doxycycline (10 ng/mL)
Method in brief: (§1)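 Doxycycline (10 ng/mL) was either included or omitted to toggle wild-type androgen receptor expression in SC3 cells, a T-Rex 293 clone, grown in stripped-serum, phenol red-free medium. After 72 hours with compound, viable cells were quantified by CellTiter-Glo 2.0.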

[2] = test system: T-Rex 293 cell line SC3 cells lacking increased expression of androgen receptor protein; assay: Cellular growth inhibition assay, T-Rex 293 SC3 cells without doxycycline (CellTiter-Glo, 72 hours); assay type: cell-based; conditions: T-Rex 293 cell line SC3 cells not exposed to doxycycline (lacking increased androgen receptor expression)
Method in brief: as §1

[3] = test system: VCaP cells; assay: Cellular growth inhibition assay for VCaP cells (CellTiter-Glo, 72 hours); assay type: cell-based, human
Method in brief: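 Luminescent viability signal after 72 h of compound exposure gave GI50 values by four-parameter nonlinear regression. Compounds were added in 0.5% DMSO to cells plated 24 h earlier at 5000/well in DMEM containing 10% FBS.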

| Structure (SMILES) | GI50 ([1]; 72 h) | GI50 ([2]; 72 h) | GI50 ([3]; Homo sapiens, VCaP, 72 h) | GI50 [2] | GI50 [3] | GI50 [1] |
| --- | --- | --- | --- | --- | --- | --- |
| Cc1sc2c(c1C)C(c1ccc(N3CC(C4CCN(c5ccc(C(=O)N[C@H]6CC[C@H](Oc7ccc(C#N)c(Cl)c7)CC6)nn5)CC4)C3)cn1)=N[C@@H](C)c1nnc(C)n1-2 [I-464] | < 500 nM | > 3000 nM | < 500 nM |  |  |  |
| Cc1sc2c(c1C)C(c1ccc(OC3CC4(CCN(c5ccc(C(=O)N[C@H]6CC[C@H](Oc7ccc(C#N)c(Cl)c7)CC6)nn5)CC4)C3)cn1)=N[C@@H](C)c1nnc(C)n1-2 [I-484] | < 500 nM |  |  | 500 to 1500 nM | < 500 nM |  |
| Cc1sc2c(c1C)C(c1ccc(C3CCC4(CC3)CCN(c3ccc(C(=O)N[C@H]5CC[C@H](Oc6ccc(C#N)c(Cl)c6)CC5)nn3)CC4)cc1)=N[C@@H](C)c1nnc(C)n1-2 [I-590] | < 500 nM | < 500 nM | > 3000 nM |  |  |  |
| COCC[C@@H]1N=C(c2ccc(CC3CC4(CCN(c5ccc(C(=O)N[C@H]6CC[C@H](Oc7ccc(C#N)c(Cl)c7)CC6)nn5)CC4)C3)cc2)c2c(sc(C)c2C)-n2c(C)nnc21 [I-660] | < 500 nM | 500 to 1500 nM | < 500 nM |  |  |  |
| Cc1sc2c(c1C)C(c1ccccc1N1CC3(CCN(c4ccc(C(=O)N[C@H]5CC[C@H](Oc6ccc(C#N)c(Cl)c6)CC5)nn4)CC3)C1)=N[C@@H](C)c1nnc(C)n1-2 [I-751] | < 500 nM | < 500 nM | < 500 nM |  |  |  |
| CC[C@@H]1N=C(c2ccc(OC3(C)CC4(CN(c5ccc(C(=O)N[C@H]6CC[C@H](Oc7ccc(C#N)c(Cl)c7)CC6)nn5)C4)C3)cc2)c2c(sc(C)c2C)-n2c(C)nnc21 [I-632] | < 500 nM | < 500 nM | < 500 nM |  |  |  |
| Cc1sc2c(c1C)C(c1ccc(C3CCC(CC4CCN(c5ccc(C(=O)N[C@H]6CC[C@H](Oc7ccc(C#N)c(Cl)c7)CC6)nn5)CC4)CC3)cc1)=N[C@@H](C)c1nnc(C)n1-2 (stereo partly drawn) [I-765] |  |  |  | > 3000 nM | < 500 nM | < 500 nM |
| Cc1sc2c(c1C)C(c1ccc(OC3(C)CC4(CN(c5ccc(C(=O)N[C@H]6CC[C@H](Oc7ccc(C#N)c(Cl)c7)CC6)nn5)C4)C3)cc1)=N[C@@H](C)c1nnc(C)n1-2 [I-595] | < 500 nM | < 500 nM | 500 to 1500 nM |  |  |  |
| CCNC(=O)C[C@@H]1N=C(c2ccc(N3CC(OC4CN(c5ccc(C(=O)N[C@H]6CC[C@H](Oc7ccc(C#N)c(Cl)c7)CC6)nn5)C4)C3)cc2)c2c(sc(C)c2C)-n2c(C)nnc21 [I-70] | < 500 nM | 500 to 1500 nM | < 500 nM |  |  |  |
| Cc1sc2c(c1C)C(c1ccc(C3CCC(CC4CCN(c5ccc(C(=O)N[C@H]6CC[C@H](Oc7ccc(C#N)c(Cl)c7)CC6)nn5)CC4)CC3)cc1)=NC1(CC1)c1nnc(C)n1-2 (stereo partly drawn) [I-757] |  |  |  | < 500 nM | < 500 nM | < 500 nM |
| Cc1sc2c(c1C)C(c1ccc(N3C[C@@H]4CN(c5ccc(C(=O)N[C@H]6CC[C@H](Oc7ccc(C#N)c(Cl)c7)CC6)nn5)C[C@H]4C3)cc1)=N[C@@H](C)c1nnc(C)n1-2 [I-706] |  |  |  | < 500 nM | < 500 nM | < 500 nM |
| Cc1sc2c(c1C)C(c1ccccc1OCC1CCN(c3ccc(C(=O)N[C@H]4CC[C@H](Oc5ccc(C#N)c(Cl)c5)CC4)nn3)CC1)=N[C@@H](C)c1nnc(C)n1-2 [I-650] |  |  |  | > 3000 nM | 1500 to 3000 nM | < 500 nM |
| Cc1sc2c(c1C)C(c1ccc(C3CC(N4CCN(c5ccc(C(=O)N[C@H]6CC[C@H](Oc7ccc(C#N)c(Cl)c7)CC6)nn5)CC4)C3)cc1)=NC1(CC1)c1nnc(C)n1-2 (stereo partly drawn) [I-573] | < 500 nM | < 500 nM | < 500 nM |  |  |  |
| Cc1sc2c(c1C)C(c1ccccc1OC1CC3(CCCN(c4ccc(C(=O)N[C@H]5CC[C@H](Oc6ccc(C#N)c(Cl)c6)CC5)nn4)C3)C1)=N[C@@H](C)c1nnc(C)n1-2 (stereo partly drawn) [I-716] | > 3000 nM | > 3000 nM | > 3000 nM |  |  |  |
| CCNC(=O)C[C@@H]1N=C(c2ccc(N3CC(N(C)C4CN(c5ccc(C(=O)N[C@H]6CC[C@H](Oc7ccc(C#N)c(Cl)c7)CC6)nn5)C4)C3)cc2)c2c(sc(C)c2C)-n2c(C)nnc21 [I-61] | < 500 nM | > 3000 nM | < 500 nM |  |  |  |
| Cc1sc2c(c1C)C(c1cccc(N3CCC4(CCCN(c5ccc(C(=O)N[C@H]6CC[C@H](Oc7ccc(C#N)c(Cl)c7)CC6)nn5)C4)CC3)c1)=N[C@@H](C)c1nnc(C)n1-2 [I-687] | < 500 nM | > 3000 nM | < 500 nM |  |  |  |
| Cc1sc2c(c1C)C(c1cccc(CC3CC4(CCCN(c5ccc(C(=O)N[C@H]6CC[C@H](Oc7ccc(C#N)c(Cl)c7)CC6)nn5)C4)C3)c1)=N[C@@H](C)c1nnc(C)n1-2 (stereo partly drawn) [I-711] | < 500 nM | > 3000 nM | < 500 nM |  |  |  |
| Cc1sc2c(c1C)C(c1ccc(N3CC(C4CCC(Cc5ccc(C(=O)N[C@H]6CC[C@H](Oc7ccc(C#N)c(Cl)c7)CC6)nn5)CC4)C3)cc1)=N[C@@H](Cc1ncco1)c1nnc(C)n1-2 (stereo partly drawn) [I-772] | < 500 nM | 500 to 1500 nM | < 500 nM |  |  |  |
| COCC[C@@H]1N=C(c2ccc(N3CCC4(CC3)CCN(c3ccc(C(=O)N[C@H]5CC[C@H](Oc6ccc(C#N)c(Cl)c6)CC5)nn3)C4)cc2)c2c(sc(C)c2C)-n2c(C)nnc21 [I-567] | < 500 nM | < 500 nM | < 500 nM |  |  |  |
| Cc1sc2c(c1C)C(c1ccc(NCC3(F)CCN(c4ncc(C(=O)N[C@H]5CC[C@H](Oc6ccc(C#N)c(Cl)c6)CC5)cn4)CC3)cc1)=NC(Cc1ncco1)c1nnc(C)n1-2 (stereo partly drawn) [I-784] | < 500 nM | < 500 nM | < 500 nM |  |  |  |
| Cc1sc2c(c1C)C(c1ccc(N3CCC(CCc4ccc(C(=O)N[C@H]5CC[C@H](Oc6ccc(C#N)c(Cl)c6)CC5)nn4)CC3)cc1)=N[C@@H](C)c1nnc(C)n1-2 [I-596] | < 500 nM | < 500 nM | < 500 nM |  |  |  |
| Cc1sc2c(c1C)C(c1ccc(OCC3CC4(CCCN(c5ccc(C(=O)N[C@H]6CC[C@H](Oc7ccc(C#N)c(Cl)c7)CC6)nn5)C4)C3)cc1)=NCc1nnc(C)n1-2 (stereo partly drawn) [I-446] |  | > 3000 nM |  |  | < 500 nM | < 500 nM |
| Cc1sc2c(c1C)C(c1ccc(C3CCC4(CCCN(c5ccc(C(=O)N[C@H]6CC[C@H](Oc7ccc(C#N)c(Cl)c7)CC6)nn5)C4)CC3)cc1)=NC(C(F)(F)F)c1nnc(C)n1-2 (stereo partly drawn) [I-696] |  |  |  | > 3000 nM | > 3000 nM | > 3000 nM |
| Cc1sc2c(c1C)C(c1ccc(C3CCC4(CCN(c5ccc(C(=O)N[C@H]6CC[C@H](Oc7ccc(C#N)c(Cl)c7)CC6)nn5)CC4)C3)nc1)=N[C@@H](C)c1nnc(C)n1-2 (stereo partly drawn) [I-553] | < 500 nM |  |  | < 500 nM | < 500 nM |  |
| Cc1sc2c(c1C)C(c1ccc(OC3CC4(CCN(c5ccc(C(=O)N[C@H]6CC[C@H](Oc7ccc(C#N)c(Cl)c7)CC6)nn5)CC4)C3)nc1)=NC1(CC1)c1nnc(C)n1-2 [I-443] | < 500 nM | > 3000 nM | < 500 nM |  |  |  |
| Cc1sc2c(c1C)C(c1ccc(CC3CC4(CCCN(c5ccc(C(=O)N[C@H]6CC[C@H](Oc7ccc(C#N)c(Cl)c7)CC6)nn5)C4)C3)cn1)=NC(Cc1ncco1)c1nnc(C)n1-2 (stereo partly drawn) [I-769] |  |  |  | > 3000 nM | < 500 nM | > 3000 nM |
| Cc1sc2c(c1C)C(c1ccc(N3CCC(CCc4ccc(C(=O)N[C@H]5CC[C@H](Oc6ccc(C#N)c(Cl)c6)CC5)nn4)CC3)cc1)=N[C@@H](Cc1ncco1)c1nnc(C)n1-2 [I-467] | < 500 nM | < 500 nM | < 500 nM |  |  |  |
| Cc1sc2c(c1C)C(c1ccc(N3C[C@@H]4CN(c5ccc(C(=O)N[C@H]6CC[C@H](Oc7ccc(C#N)c(Cl)c7)CC6)nn5)C[C@@H]4C3)cc1)=N[C@@H](C)c1nnc(C)n1-2 [I-511] | < 500 nM | < 500 nM | < 500 nM |  |  |  |
